These results are taken from patent US9200008B2 (ASKA PHARMACEUTICAL CO., LTD., priority 2010, dated 2015).

For the assay, the system named is Human prostate cancer cell lines (PC-3 cells). The assay is described as follows: Measurement of cell death-inducing activity (Test Example 1). Type of assay: cell-based. The note with it: PC-3, 48 h, 48 hours after addition, tested at 10, 1, 0.1, 0.025 and 0.00625 μmol/L, qualitative evaluation of 10 fields, read-out: Concentration showing the cell death-inducing activity (cell death-inducing rate not less than 40%). An outline of the steps: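 PC-3 cells seeded at 1×10^5 cells/well and grown 48 h at 37 °C, 5% CO2, then exposed to compound at 10, 1, 0.1, 0.025 and 0.00625 μmol/L (DMSO control) for a further 48 h. Activity was called where cell death-inducing rate was not less than 40%.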
For the compound `Cc1ccc(-c2nc(C)c(NC(=O)OCc3ccc4c(c3)nc3n4CCN(C)C3)s2)c(C)c1` [Example 38-3, [2-(2,4-Dimethylphenyl)-4-methylthiazol-5-yl]carbamic acid 2-methyl-1,2,3,4-tetrahydrobenzo[4,5]imidazo[1,2-a]pyrazin-8-ylmethyl ester], the minimal effective concentration amounted to 10 µM.

For `CCc1nc(-c2ccc(Cl)cc2OC)sc1NC(=O)OCc1ccc2c(c1)nnn2CC` [Example 9-160], the minimal effective concentration came to 0.025 µM.

As to `COc1ccc(/C=N/NC(=O)c2cc(-c3ccc(Cl)cc3OC)n[nH]2)cc1O` [Example 22-8], the minimal effective concentration is 1 µM.

Regarding `CCc1nc(-c2ccc(F)cc2C)sc1NC(=O)OCc1ccc2nn(CC)cc2c1` [Example 9-369], the minimal effective concentration came out at 1 µM.

With `COc1ccccc1-c1cc(C(=O)N/N=C/c2cc(C)c(O)c(C)c2)sn1` [Example 27-8], the minimal effective concentration was determined as 0.1 µM.

On to `CCn1nc(-c2ccc(Cl)cc2OC)cc1COC(=O)Nc1ccc2c(c1)ncn2C` [Example 13-85], for which the minimal effective concentration is 0.00625 µM.

As for `Cc1cc(Cl)ccc1-c1nc(C)c(NC(=O)OCc2ccc3nn(C)cc3c2)s1` [Example 9-150], the minimal effective concentration turned out to be 0.025 µM.

For `Cn1nc(-c2ccccc2)cc1NC(=O)OCc1ccc2c(c1)ncn2C` [Example 9-204], the minimal effective concentration came out at 10 µM.

On to `CCc1cc(F)ccc1-c1nc(C)c(NC(=O)OCc2ccc3c(c2)nc2n3CCC2)s1` [Example 9-102], for which the minimal effective concentration worked out at 0.025 µM.

As for `CCn1nc2c(c1NC(=O)OCc1ccc3c(c1)ncn3C)COc1ccccc1-2` [Example 9-321], the minimal effective concentration was determined as 10 µM.

For `COc1cc(F)ccc1-c1nc(C)c(NC(=O)OCc2ccc3nn(C)cc3c2)s1` [Example 9-143], the minimal effective concentration is 0.025 µM.

For `COc1cc(Cl)ccc1-c1nc(C)c(C(=O)NN(C)Cc2ccc(SC)cc2)s1` [Example 16-22], the minimal effective concentration amounted to 1 µM.

In the case of `Cc1nc(-c2sccc2Cl)sc1NC(=O)OCc1ccc2c(c1)ncn2C` [Example 9-192], the minimal effective concentration was determined as 1 µM.

As for `COc1ccc(/C=N/NC(=O)c2sc(-c3ccc(Cl)cc3)nc2C2CC2)cc1O` [Example 23-101], the minimal effective concentration was determined as 10 µM.

Consider `CCn1ncc2cc(COC(=O)Nc3sc(-c4ccc(C)cc4C)nc3C)ccc21` [Example 9-139], for which the minimal effective concentration was 0.025 µM.

As to `COc1ccc(/C=N/NC(=O)c2sc(-c3nccc4ccccc34)nc2C)cc1O` [Example 23-27], the minimal effective concentration was determined as 10 µM.

For `Cc1ccc(-c2cc(COC(=O)Nc3ccc4c(c3)ncn4C)nn2C)c(C)c1` [Example 13-141], the minimal effective concentration was 10 µM.

Consider `COc1cc(Cl)ccc1-c1cc(C(=O)N/N=C/c2ccc3c(c2)ncn3C)sn1` [Example 49-1], for which the minimal effective concentration was determined as 0.025 µM.

For the compound `COc1cc(F)ccc1-c1nc(C)c(NC(=O)OCc2ccc3c(c2)ncn3C)s1` [Example 9-38], the minimal effective concentration was 0.00625 µM.

On to `COCCn1cnc2cc(NC(=O)OCc3cc(-c4ccc(Cl)cc4OC)nn3C)ccc21` [Example 13-94], for which the minimal effective concentration was found to be 1 µM.

With `COCCn1cnc2cc(COC(=O)Nc3cc(-c4ccc(Cl)cc4OC)nn3C)ccc21` [Example 9-273], the minimal effective concentration came to 10 µM.

As for `CCn1ncc2ccc(COC(=O)Nc3cc(-c4ccc(Cl)cc4OC)nn3C)cc21` [Example 9-298], the minimal effective concentration worked out at 10 µM.

`CCn1cc2cc(NC(=O)OCc3sc(-c4ccc(Cl)cc4C)nc3C)ccc2n1` [Example 13-55]: the minimal effective concentration worked out at 0.025 µM.

For `COc1cc(Cl)ccc1-c1cc(NC(=O)OCc2ccc3c(c2)nc2n3CCOC2)n(C)n1` [Example 9-247], the minimal effective concentration stood at 0.00625 µM.

As for `Cc1cc(/C=N/NC(=O)c2cc(-c3ccccn3)ns2)cc(C)c1O` [Example 27-12], the minimal effective concentration stood at 1 µM.

`COc1ccc(CN(C)NC(=O)c2sc(-c3ccc(Cl)cc3)nc2C)cc1` [Example 16-2]: the minimal effective concentration was 10 µM.
